Data published in PMC10174618, “Monoterpenoid aryl hydrocarbon receptor allosteric antagonists protect against ultraviolet skin damage in female mice” (Nature Communications, 2023).

How the values were obtained:
Assay in all cases: biochemical
Parameters in all cases: KINOMEscan scanMAX active site-directed competition binding assay, percent of control, 468 kinases
Details in all cases: competition binding, percent of control
BMPR1A = BMPR1A (Homo sapiens, UniProt P36894)
Procedure, shortened: (§1)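 Single-concentration screen (100 μM S-carvone) in a competition binding panel of 468 human kinases (KINOMEscan scanMAX); results given as percent of control, hit cutoff 35%.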

S6K1 = target: T1, S6K1 (Homo sapiens, UniProt P23443)
T1 construct: gene RPS6KB1
Procedure, shortened: as §1

NDR2 = target: T2, NDR2 (Homo sapiens, UniProt Q9Y2H1)
T2 construct: gene STK38L
Procedure, shortened: as §1

EGFR(L747-T751del,Sins) = EGFR(L747-T751del,Sins) (Homo sapiens, UniProt P00533, DEL747-750/T751S)
EGFR(L747-T751del,Sins), sequence (P00533 with tags, fused parts or gaps DEL747-750/T751S): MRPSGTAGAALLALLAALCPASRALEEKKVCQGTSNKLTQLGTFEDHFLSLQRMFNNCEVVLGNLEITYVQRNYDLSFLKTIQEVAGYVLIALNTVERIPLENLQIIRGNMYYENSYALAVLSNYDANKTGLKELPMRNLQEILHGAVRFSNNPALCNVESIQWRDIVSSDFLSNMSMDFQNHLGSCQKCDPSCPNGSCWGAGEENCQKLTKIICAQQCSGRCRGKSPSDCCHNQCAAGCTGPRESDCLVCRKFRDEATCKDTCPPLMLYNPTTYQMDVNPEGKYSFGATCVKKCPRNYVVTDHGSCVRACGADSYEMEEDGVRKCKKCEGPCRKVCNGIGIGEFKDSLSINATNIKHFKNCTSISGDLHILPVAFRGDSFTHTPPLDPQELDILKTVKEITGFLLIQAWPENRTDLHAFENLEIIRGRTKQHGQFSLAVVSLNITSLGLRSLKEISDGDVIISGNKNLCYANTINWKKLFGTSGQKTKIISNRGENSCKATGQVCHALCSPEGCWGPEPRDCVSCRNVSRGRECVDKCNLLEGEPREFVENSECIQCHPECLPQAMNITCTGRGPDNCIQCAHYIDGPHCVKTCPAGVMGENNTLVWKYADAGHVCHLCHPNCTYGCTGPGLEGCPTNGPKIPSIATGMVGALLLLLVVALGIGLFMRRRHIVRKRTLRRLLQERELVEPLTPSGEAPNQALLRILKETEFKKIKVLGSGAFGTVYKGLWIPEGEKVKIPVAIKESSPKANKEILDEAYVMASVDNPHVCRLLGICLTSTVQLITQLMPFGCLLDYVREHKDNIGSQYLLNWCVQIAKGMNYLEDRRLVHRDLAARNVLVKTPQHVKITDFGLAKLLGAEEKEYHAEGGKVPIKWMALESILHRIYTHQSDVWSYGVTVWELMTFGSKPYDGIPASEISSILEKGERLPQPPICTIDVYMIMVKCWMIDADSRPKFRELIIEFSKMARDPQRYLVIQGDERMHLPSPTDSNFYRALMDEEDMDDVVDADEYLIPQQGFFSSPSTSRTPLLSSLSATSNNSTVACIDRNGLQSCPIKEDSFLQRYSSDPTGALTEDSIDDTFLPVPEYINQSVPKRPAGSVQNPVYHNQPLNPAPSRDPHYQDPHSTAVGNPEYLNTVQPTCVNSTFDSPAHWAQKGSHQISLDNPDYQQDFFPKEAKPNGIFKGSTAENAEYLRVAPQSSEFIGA
Procedure, shortened: as §1

MST1 = target: T3, MST1 (Homo sapiens, UniProt Q13043)
T3 construct: gene STK4
Procedure, shortened: as §1

WNK1 = WNK1 (Homo sapiens, UniProt Q9H4A3)
WNK1, sequence (Q9H4A3 whole entry): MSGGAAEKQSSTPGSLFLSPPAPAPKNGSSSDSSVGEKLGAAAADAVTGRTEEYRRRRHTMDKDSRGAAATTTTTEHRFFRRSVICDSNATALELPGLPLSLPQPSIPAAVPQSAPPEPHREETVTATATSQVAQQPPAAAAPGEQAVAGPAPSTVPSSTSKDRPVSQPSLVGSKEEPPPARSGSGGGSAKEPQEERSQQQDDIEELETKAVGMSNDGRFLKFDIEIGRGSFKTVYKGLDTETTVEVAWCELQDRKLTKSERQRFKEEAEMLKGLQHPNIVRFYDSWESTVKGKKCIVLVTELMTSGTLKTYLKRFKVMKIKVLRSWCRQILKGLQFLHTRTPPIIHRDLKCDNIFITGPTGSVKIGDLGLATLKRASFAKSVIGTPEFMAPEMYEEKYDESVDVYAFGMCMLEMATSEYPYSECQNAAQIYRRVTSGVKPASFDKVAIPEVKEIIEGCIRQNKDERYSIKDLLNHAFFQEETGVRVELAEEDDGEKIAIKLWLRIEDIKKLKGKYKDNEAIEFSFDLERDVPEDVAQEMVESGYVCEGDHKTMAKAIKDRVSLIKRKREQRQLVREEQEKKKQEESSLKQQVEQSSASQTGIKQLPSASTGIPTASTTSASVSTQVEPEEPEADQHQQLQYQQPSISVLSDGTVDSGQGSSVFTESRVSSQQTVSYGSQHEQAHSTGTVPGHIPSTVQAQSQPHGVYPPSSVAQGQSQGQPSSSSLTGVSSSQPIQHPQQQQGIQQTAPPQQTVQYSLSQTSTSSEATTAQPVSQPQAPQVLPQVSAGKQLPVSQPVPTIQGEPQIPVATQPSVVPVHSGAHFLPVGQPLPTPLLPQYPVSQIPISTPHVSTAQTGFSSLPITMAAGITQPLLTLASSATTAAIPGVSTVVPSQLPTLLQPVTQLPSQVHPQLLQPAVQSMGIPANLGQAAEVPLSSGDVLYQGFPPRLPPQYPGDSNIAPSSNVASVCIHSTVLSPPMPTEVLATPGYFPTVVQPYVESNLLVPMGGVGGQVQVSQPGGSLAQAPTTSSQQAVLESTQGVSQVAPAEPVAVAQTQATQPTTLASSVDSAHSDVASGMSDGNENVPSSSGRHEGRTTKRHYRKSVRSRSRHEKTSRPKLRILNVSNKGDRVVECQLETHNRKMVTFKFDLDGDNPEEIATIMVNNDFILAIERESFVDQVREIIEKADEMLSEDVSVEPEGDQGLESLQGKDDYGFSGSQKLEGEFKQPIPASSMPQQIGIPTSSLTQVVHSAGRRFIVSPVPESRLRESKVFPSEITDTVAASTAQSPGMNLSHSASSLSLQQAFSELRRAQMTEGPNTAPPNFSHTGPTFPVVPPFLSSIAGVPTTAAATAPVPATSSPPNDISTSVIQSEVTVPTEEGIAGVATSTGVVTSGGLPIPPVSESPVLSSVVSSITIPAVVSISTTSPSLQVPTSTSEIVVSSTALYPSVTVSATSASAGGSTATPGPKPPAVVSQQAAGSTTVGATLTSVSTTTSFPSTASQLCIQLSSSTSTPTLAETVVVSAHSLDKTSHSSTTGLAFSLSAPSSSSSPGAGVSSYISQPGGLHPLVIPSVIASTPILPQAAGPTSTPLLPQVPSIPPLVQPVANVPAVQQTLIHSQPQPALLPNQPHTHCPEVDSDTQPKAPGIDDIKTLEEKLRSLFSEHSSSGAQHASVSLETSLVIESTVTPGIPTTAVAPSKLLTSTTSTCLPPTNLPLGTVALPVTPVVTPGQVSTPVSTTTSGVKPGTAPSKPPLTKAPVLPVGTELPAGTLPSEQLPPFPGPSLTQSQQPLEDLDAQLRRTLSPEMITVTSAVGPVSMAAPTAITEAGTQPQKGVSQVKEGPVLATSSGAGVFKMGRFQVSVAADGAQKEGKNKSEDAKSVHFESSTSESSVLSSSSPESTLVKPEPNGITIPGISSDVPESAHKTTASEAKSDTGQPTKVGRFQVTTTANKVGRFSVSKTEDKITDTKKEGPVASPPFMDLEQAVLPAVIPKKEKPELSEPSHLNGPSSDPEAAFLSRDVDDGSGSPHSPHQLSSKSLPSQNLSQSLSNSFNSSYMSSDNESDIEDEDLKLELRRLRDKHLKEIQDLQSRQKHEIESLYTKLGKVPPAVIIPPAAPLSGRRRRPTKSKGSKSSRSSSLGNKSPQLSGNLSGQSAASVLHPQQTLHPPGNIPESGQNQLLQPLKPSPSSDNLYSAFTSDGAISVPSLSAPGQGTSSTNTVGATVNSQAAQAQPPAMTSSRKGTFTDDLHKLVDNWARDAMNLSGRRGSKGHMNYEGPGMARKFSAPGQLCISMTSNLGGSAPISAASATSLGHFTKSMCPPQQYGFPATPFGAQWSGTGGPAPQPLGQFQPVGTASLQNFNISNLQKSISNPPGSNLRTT
Procedure, shortened: as §1

DYRK1B = DYRK1B (Homo sapiens, UniProt Q9Y463)
Procedure, shortened: as §1

MLK3 = target: T4, MLK3 (Homo sapiens, UniProt Q16584)
T4 construct: gene MAP3K11
Procedure, shortened: as §1

ALK(L1196M) = ALK(L1196M) (Homo sapiens, UniProt Q9UM73, L1196M)
Procedure, shortened: as §1

PRKD3 = PRKD3 (Homo sapiens, UniProt O94806)
Procedure, shortened: as §1

DMPK2 = target: T5, DMPK2 (Homo sapiens, UniProt Q6DT37)
T5 construct: gene CDC42BPG
Procedure, shortened: as §1

ICK = target: T6, ICK (Homo sapiens, UniProt Q9UPZ9)
T6 construct: gene CILK1
Procedure, shortened: as §1

ERK2 = target: T7, ERK2 (Homo sapiens, UniProt P28482)
T7 construct: gene MAPK1
Procedure, shortened: as §1

JNK1 = target: T8, JNK1 (Homo sapiens, UniProt P45983)
T8 construct: gene MAPK8
Procedure, shortened: as §1

SBK1 = SBK1 (Homo sapiens, UniProt Q52WX2)
Procedure, shortened: as §1

CAMKK1 = CAMKK1 (Homo sapiens, UniProt Q8N5S9)
Procedure, shortened: as §1

MINK = target: T9, MINK (Homo sapiens, UniProt Q8N4C8)
T9 construct: gene MINK1
T9 sequence (Q8N4C8 whole entry): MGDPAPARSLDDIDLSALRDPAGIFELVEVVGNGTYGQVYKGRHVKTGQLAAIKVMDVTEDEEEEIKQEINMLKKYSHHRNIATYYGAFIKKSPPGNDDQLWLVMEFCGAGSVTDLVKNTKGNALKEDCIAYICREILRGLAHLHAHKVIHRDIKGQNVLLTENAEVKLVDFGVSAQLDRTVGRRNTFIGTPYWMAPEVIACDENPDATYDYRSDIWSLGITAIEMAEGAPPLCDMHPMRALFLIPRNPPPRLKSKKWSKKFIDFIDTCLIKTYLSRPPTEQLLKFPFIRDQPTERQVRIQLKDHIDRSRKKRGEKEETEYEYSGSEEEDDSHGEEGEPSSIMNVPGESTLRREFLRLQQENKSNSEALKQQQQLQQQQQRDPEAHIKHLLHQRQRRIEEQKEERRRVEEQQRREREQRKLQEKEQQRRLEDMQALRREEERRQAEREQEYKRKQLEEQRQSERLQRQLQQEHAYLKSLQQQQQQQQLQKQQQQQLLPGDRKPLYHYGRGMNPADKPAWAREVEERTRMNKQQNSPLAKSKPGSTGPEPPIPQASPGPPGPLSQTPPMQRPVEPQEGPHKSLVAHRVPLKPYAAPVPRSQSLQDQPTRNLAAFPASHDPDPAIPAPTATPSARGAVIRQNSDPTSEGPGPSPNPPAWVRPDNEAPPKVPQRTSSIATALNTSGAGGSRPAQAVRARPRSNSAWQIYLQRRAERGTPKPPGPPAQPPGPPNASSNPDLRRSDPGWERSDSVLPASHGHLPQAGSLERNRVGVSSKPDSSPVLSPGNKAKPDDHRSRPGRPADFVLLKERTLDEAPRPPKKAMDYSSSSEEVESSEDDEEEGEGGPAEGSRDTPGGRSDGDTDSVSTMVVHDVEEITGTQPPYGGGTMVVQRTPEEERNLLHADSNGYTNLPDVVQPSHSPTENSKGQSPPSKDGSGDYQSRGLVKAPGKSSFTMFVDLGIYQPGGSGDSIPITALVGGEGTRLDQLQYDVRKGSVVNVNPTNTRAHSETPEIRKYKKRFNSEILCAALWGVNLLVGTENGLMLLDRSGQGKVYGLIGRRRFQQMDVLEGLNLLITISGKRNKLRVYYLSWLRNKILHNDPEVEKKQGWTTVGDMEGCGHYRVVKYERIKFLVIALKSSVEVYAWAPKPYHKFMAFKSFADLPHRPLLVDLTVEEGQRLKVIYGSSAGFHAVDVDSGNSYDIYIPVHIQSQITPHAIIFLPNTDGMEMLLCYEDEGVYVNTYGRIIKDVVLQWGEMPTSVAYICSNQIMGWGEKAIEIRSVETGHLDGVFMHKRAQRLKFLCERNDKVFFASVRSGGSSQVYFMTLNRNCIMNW
Procedure, shortened: as §1

CDK4 = CDK4 (Homo sapiens, UniProt P11802)
Procedure, shortened: as §1

OSR1 = target: T10, OSR1 (Homo sapiens, UniProt O95747)
T10 construct: gene OXSR1
Procedure, shortened: as §1

FLT3(ITD,D835V) = FLT3(ITD,D835V) (Homo sapiens, UniProt P36888, D835V/ITD)
Procedure, shortened: as §1

PLK3 = PLK3 (Homo sapiens, UniProt Q9H4B4)
Procedure, shortened: as §1

remaining binding at 100 µM (BMPR1A): 92%
remaining binding at 100 µM (S6K1): 93%
remaining binding at 100 µM (NDR2): 83%
remaining binding at 100 µM (EGFR(L747-T751del,Sins)): 78%
remaining binding at 100 µM (MST1): 81%
remaining binding at 100 µM (WNK1): 86%
remaining binding at 100 µM (DYRK1B): 100%
remaining binding at 100 µM (MLK3): 73%
remaining binding at 100 µM (ALK(L1196M)): 71%
remaining binding at 100 µM (PRKD3): 92%
remaining binding at 100 µM (DMPK2): 83%
remaining binding at 100 µM (ICK): 97%
remaining binding at 100 µM (ERK2): 76%
remaining binding at 100 µM (JNK1): 80%
remaining binding at 100 µM (SBK1): 100%
remaining binding at 100 µM (CAMKK1): 94%
remaining binding at 100 µM (MINK): 72%
remaining binding at 100 µM (CDK4): 71%
remaining binding at 100 µM (OSR1): 78%
remaining binding at 100 µM (FLT3(ITD,D835V)): 85%
remaining binding at 100 µM (PLK3): 69%
Structure (SMILES): C=C(C)[C@H]1CC=C(C)C(=O)C1 [S-carvone]
